{"source": "paper PMC5218480", "about": "(PLoS ONE, 2017)", "test_system": "MV-4-11 cells", "experiment": "Gene expression microarray analysis (Affymetrix PrimeView) and GSEA", "type": "cell-based, human", "parameters": "RFU PODN (11730768_x_at) / Fold change /veh PODN (11730768_x_at) / RFU LINC00158 (11744669_a_at) / Fold change /veh LINC00158 (11744669_a_at) / RFU DUSP10 (11751237_a_at) / Fold change /veh DUSP10 (11751237_a_at) / RFU ID3 (11757404_x_at) / Fold change /veh ID3 (11757404_x_at) / RFU PLEKHG5 (11737974_s_at) / Fold change /veh PLEKHG5 (11737974_s_at) / RFU LRRC4B (11730491_at) / Fold change /veh LRRC4B (11730491_at) / RFU GIMAP4 (11747438_a_at) / Fold change /veh GIMAP4 (11747438_a_at) / RFU KRT8 (11758183_x_at) / Fold change /veh KRT8 (11758183_x_at) / RFU CNN1 (11734310_a_at) / Fold change /veh CNN1 (11734310_a_at) / RFU VPS37D (11726825_at) / Fold change /veh VPS37D (11726825_at) / RFU C10orf10 (11716522_x_at) / Fold change /veh C10orf10 (11716522_x_at) / RFU KIR2DL2 /// KIR2DL4 /// KIR2DL5A /// KIR2DL5B /// KIR2DS1 /// KIR2DS2 /// KIR2DS3 /// KIR2DS4 /// KIR3DL3 /// KIR3DL3 /// KIR3DS1 (11738374_at) / Fold change /veh KIR2DL2 /// KIR2DL4 /// KIR2DL5A /// KIR2DL5B /// KIR2DS1 /// KIR2DS2 /// KIR2DS3 /// KIR2DS4 /// KIR3DL3 /// KIR3DL3 /// KIR3DS1 (11738374_at) / RFU C1QL1 (11718748_at) / Fold change /veh C1QL1 (11718748_at) / RFU TMPRSS4 (11747572_a_at) / Fold change /veh TMPRSS4 (11747572_a_at) / RFU HAMP (11756126_x_at) / Fold change /veh HAMP (11756126_x_at) / RFU RNFT2 (11725882_a_at) / Fold change /veh RNFT2 (11725882_a_at) / RFU NR4A2 (11747474_a_at) / Fold change /veh NR4A2 (11747474_a_at) / RFU ABCC12 (11746883_a_at) / Fold change /veh ABCC12 (11746883_a_at) / RFU TMEM136 (11760407_x_at) / Fold change /veh TMEM136 (11760407_x_at) / RFU CLDN22 /// WWC2 (11732394_at) / Fold change /veh CLDN22 /// WWC2 (11732394_at) / RFU HLA-DPB1 (11760878_x_at) / Fold change /veh HLA-DPB1 (11760878_x_at) / RFU SPINT1 (11716480_a_at) / Fold change /veh SPINT1 (11716480_a_at) / RFU GAP43 (11754022_s_at) / Fold change /veh GAP43 (11754022_s_at) / RFU A4GNT (11735810_at) / Fold change /veh A4GNT (11735810_at) / RFU PRB3 (11715151_x_at) / Fold change /veh PRB3 (11715151_x_at) / RFU TUBB4B (11761932_at) / Fold change /veh TUBB4B (11761932_at) / RFU CAPN14 (11732068_a_at) / Fold change /veh CAPN14 (11732068_a_at) / RFU TMCC2 (11721928_a_at) / Fold change /veh TMCC2 (11721928_a_at) / RFU IRGQ (11745062_a_at) / Fold change /veh IRGQ (11745062_a_at) / RFU FAM174B (11720279_a_at) / Fold change /veh FAM174B (11720279_a_at) / RFU TMPRSS4 (11748680_a_at) / Fold change /veh TMPRSS4 (11748680_a_at) / RFU FAM212B (11763350_a_at) / Fold change /veh FAM212B (11763350_a_at) / RFU PLEKHG5 (11743358_a_at) / Fold change /veh PLEKHG5 (11743358_a_at) / RFU ZSCAN30 (11745921_a_at) / Fold change /veh ZSCAN30 (11745921_a_at) / RFU CMKLR1 (11741424_a_at) / Fold change /veh CMKLR1 (11741424_a_at) / RFU LOC101060620 /// MAPK8IP1 (11723275_at) / Fold change /veh LOC101060620 /// MAPK8IP1 (11723275_at) / RFU SPTSSB (11747773_x_at) / Fold change /veh SPTSSB (11747773_x_at) / RFU PRSS12 (11739890_at) / Fold change /veh PRSS12 (11739890_at) / RFU BIN1 (11741810_x_at) / Fold change /veh BIN1 (11741810_x_at) / RFU WNT11 (11732464_a_at) / Fold change /veh WNT11 (11732464_a_at) / RFU C10orf10 (11716521_a_at) / Fold change /veh C10orf10 (11716521_a_at) / RFU C5orf56 (11738089_at) / Fold change /veh C5orf56 (11738089_at) / RFU CYB561 (11721691_x_at) / Fold change /veh CYB561 (11721691_x_at) / RFU ANKRD19P (11752326_a_at) / Fold change /veh ANKRD19P (11752326_a_at) / RFU OR2T12 /// OR2T33 /// OR2T8 (11738714_s_at) / Fold change /veh OR2T12 /// OR2T33 /// OR2T8 (11738714_s_at) / RFU VCAN (11748164_a_at) / Fold change /veh VCAN (11748164_a_at) / RFU JSRP1 (11732532_at) / Fold change /veh JSRP1 (11732532_at) / RFU KRTAP10-11 (11738290_x_at) / Fold change /veh KRTAP10-11 (11738290_x_at) / RFU MYO3A (11730013_a_at) / Fold change /veh MYO3A (11730013_a_at) / RFU EBF3 (11725865_a_at) / Fold change /veh EBF3 (11725865_a_at) / RFU CAMK2N1 (11719241_x_at) / Fold change /veh CAMK2N1 (11719241_x_at) / RFU C5orf56 (11738088_a_at) / Fold change /veh C5orf56 (11738088_a_at) / RFU OLFML3 (11715873_a_at) / Fold change /veh OLFML3 (11715873_a_at) / RFU LOC100653217 /// NTM (11731650_a_at) / Fold change /veh LOC100653217 /// NTM (11731650_a_at) / RFU MAPK11 (11762145_a_at) / Fold change /veh MAPK11 (11762145_a_at) / RFU FIZ1 (11724087_x_at) / Fold change /veh FIZ1 (11724087_x_at) / RFU OASL (11726364_x_at) / Fold change /veh OASL (11726364_x_at) / RFU SOX15 (11748057_x_at) / Fold change /veh SOX15 (11748057_x_at) / RFU CD79A (11719716_a_at) / Fold change /veh CD79A (11719716_a_at) / RFU HIST1H1D (11736915_at) / Fold change /veh HIST1H1D (11736915_at) / RFU CASKIN2 (11723855_a_at) / Fold change /veh CASKIN2 (11723855_a_at) / RFU LOC730098 (11760151_x_at) / Fold change /veh LOC730098 (11760151_x_at) / RFU OR4N2 (11742367_at) / Fold change /veh OR4N2 (11742367_at) / RFU PRRT2 (11749266_a_at) / Fold change /veh PRRT2 (11749266_a_at) / RFU SNX32 (11753110_a_at) / Fold change /veh SNX32 (11753110_a_at) / RFU CDHR5 (11726645_a_at) / Fold change /veh CDHR5 (11726645_a_at) / RFU RCAN1 (11760418_a_at) / Fold change /veh RCAN1 (11760418_a_at) / RFU FAM167A (11723789_a_at) / Fold change /veh FAM167A (11723789_a_at) / RFU FAM26E (11764081_at) / Fold change /veh FAM26E (11764081_at) / RFU ISYNA1 (11749810_s_at) / Fold change /veh ISYNA1 (11749810_s_at) / RFU ACY1 (11761880_at) / Fold change /veh ACY1 (11761880_at) / RFU 11764098_at / Fold change /veh 11764098_at / RFU SAMD14 (11745864_x_at) / Fold change /veh SAMD14 (11745864_x_at) / RFU NPB (11741838_a_at) / Fold change /veh NPB (11741838_a_at) / RFU TMPRSS6 (11731388_a_at) / Fold change /veh TMPRSS6 (11731388_a_at) / RFU KRTAP10-2 (11738614_at) / Fold change /veh KRTAP10-2 (11738614_at) / RFU ARHGAP8 /// PRR5-ARHGAP8 (11727945_x_at) / Fold change /veh ARHGAP8 /// PRR5-ARHGAP8 (11727945_x_at) / RFU KRTAP5-7 /// NADSYN1 (11734609_at) / Fold change /veh KRTAP5-7 /// NADSYN1 (11734609_at) / RFU RASL12 (11751679_a_at) / Fold change /veh RASL12 (11751679_a_at) / RFU CDKN2B (11736163_a_at) / Fold change /veh CDKN2B (11736163_a_at) / RFU PRF1 (11729649_at) / Fold change /veh PRF1 (11729649_at) / RFU, ZNF638 /// ZNF638-IT1 / Fold change vs veh, ZNF638 /// ZNF638-IT1 / RFU, PANK3 / Fold change vs veh, PANK3 / RFU, SH3YL1 / Fold change vs veh, SH3YL1 / RFU, ZEB2 / Fold change vs veh, ZEB2 / RFU, NRIP1 / Fold change vs veh, NRIP1 / RFU, PTTG1IP / Fold change vs veh, PTTG1IP / RFU, CAPN2 / Fold change vs veh, CAPN2 / RFU, MED14 / Fold change vs veh, MED14 / RFU, SNORA58 / Fold change vs veh, SNORA58 / RFU, C1orf63 / Fold change vs veh, C1orf63 / RFU, LRRFIP1 / Fold change vs veh, LRRFIP1 / RFU, NDUFAF7 / Fold change vs veh, NDUFAF7 / RFU, SLC12A2 / Fold change vs veh, SLC12A2 / RFU, IBTK / Fold change vs veh, IBTK / RFU, ESF1 / Fold change vs veh, ESF1 / Fold change vs veh, TMEM50B / RFU, TAOK1 / Fold change vs veh, TAOK1 / RFU, ACBD3 / Fold change vs veh, ACBD3 / RFU, TMA16 / Fold change vs veh, TMA16 / RFU, RWDD3 / Fold change vs veh, RWDD3 / RFU, BCAT1 / Fold change vs veh, BCAT1 / RFU, EDEM3 / Fold change vs veh, EDEM3 / RFU, TMEM33 / Fold change vs veh, TMEM33 / RFU, WDR75 / Fold change vs veh, WDR75 / RFU, AHCTF1 / Fold change vs veh, AHCTF1 / RFU, TFRC / Fold change vs veh, TFRC / RFU, ZDHHC17 / Fold change vs veh, ZDHHC17 / RFU, NOM1 / Fold change vs veh, NOM1 / RFU, ARL8B / Fold change vs veh, ARL8B / RFU, ZBTB11 / Fold change vs veh, ZBTB11 / RFU, TAMM41 / Fold change vs veh, TAMM41 / RFU, KIAA1704 /// LOC100996395 / Fold change vs veh, KIAA1704 /// LOC100996395 / RFU, ING1 / Fold change vs veh, ING1 / RFU, TRMT61B / Fold change vs veh, TRMT61B / RFU, FUBP3 / Fold change vs veh, FUBP3 / RFU, TP53 / Fold change vs veh, TP53 / RFU, TNKS2 / Fold change vs veh, TNKS2 / RFU, ZFP14 / Fold change vs veh, ZFP14 / RFU, ACTR2 / Fold change vs veh, ACTR2 / RFU, PPP3R1 / Fold change vs veh, PPP3R1 / RFU, PIK3R1 / Fold change vs veh, PIK3R1 / RFU, HNRNPA1 / Fold change vs veh, HNRNPA1 / RFU, RNF170 / Fold change vs veh, RNF170 / RFU, ZNF28 / Fold change vs veh, ZNF28 / RFU, RNGTT / Fold change vs veh, RNGTT / RFU, OGT / Fold change vs veh, OGT / RFU, BRD1 / Fold change vs veh, BRD1 / RFU, MARS / Fold change vs veh, MARS / RFU, ZNF655 / Fold change vs veh, ZNF655 / RFU, FAHD1 / Fold change vs veh, FAHD1 / RFU, BDP1 / Fold change vs veh, BDP1 / RFU, LRRCC1 / Fold change vs veh, LRRCC1 / RFU, ARID1A / Fold change vs veh, ARID1A / RFU, ZNF146 / Fold change vs veh, ZNF146 / RFU, ZNF330 / Fold change vs veh, ZNF330 / RFU, GPN3 / Fold change vs veh, GPN3 / RFU, C9orf123 / Fold change vs veh, C9orf123 / RFU, N4BP2L2 / Fold change vs veh, N4BP2L2 / RFU, ARFIP1 / Fold change vs veh, ARFIP1 / RFU, FAM179B / Fold change vs veh, FAM179B / RFU, BCL10 / Fold change vs veh, BCL10 / RFU, UHRF1BP1L / Fold change vs veh, UHRF1BP1L / RFU, BET1 / Fold change vs veh, BET1 / RFU, CNOT2 / Fold change vs veh, CNOT2 / RFU, ZNF268 / Fold change vs veh, ZNF268 / Fold change vs veh, ZNF507 / RFU, DGCR2 / Fold change vs veh, DGCR2 / RFU, WDSUB1 / Fold change vs veh, WDSUB1 / Fold change vs veh, HSP90B1 /// MIR3652 / RFU, ADSS / Fold change vs veh, ADSS / RFU, GK / Fold change vs veh, GK / RFU, ZNF148 / Fold change vs veh, ZNF148 / RFU, TAF9 / Fold change vs veh, TAF9 / RFU, SLC1A5 / Fold change vs veh, SLC1A5 / RFU, SLMO2 / Fold change vs veh, SLMO2 / RFU, ABCC4 / Fold change vs veh, ABCC4 / RFU, LOC101060439 /// RAP1B / Fold change vs veh, LOC101060439 /// RAP1B / RFU, RFX7 / Fold change vs veh, RFX7 / RFU, GTPBP10 / Fold change vs veh, GTPBP10 / RFU, CNEP1R1 / Fold change vs veh, CNEP1R1 / RFU, BIVM-ERCC5 /// ERCC5 / Fold change vs veh, BIVM-ERCC5 /// ERCC5 / RFU, ILF3 / Fold change vs veh, ILF3 / RFU 11762660_at / Fold change /veh 11762660_at / RFU VCAN (11757783_s_at) / Fold change /veh VCAN (11757783_s_at) / RFU DDX43 (11728927_at) / Fold change /veh DDX43 (11728927_at) / RFU KRT8 (11758188_x_at) / Fold change /veh KRT8 (11758188_x_at) / RFU NKD1 (11759106_at) / Fold change /veh NKD1 (11759106_at) / RFU SRD5A1 (11742802_a_at) / Fold change /veh SRD5A1 (11742802_a_at) / RFU TPSAB1 /// TPSB2 (11721975_s_at) / Fold change /veh TPSAB1 /// TPSB2 (11721975_s_at) / RFU GSTM3 (11746129_a_at) / Fold change /veh GSTM3 (11746129_a_at) / RFU IL23R (11737362_x_at) / Fold change /veh IL23R (11737362_x_at) / RFU TMEM51 (11727254_a_at) / Fold change /veh TMEM51 (11727254_a_at) / RFU PIWIL2 (11732686_x_at) / Fold change /veh PIWIL2 (11732686_x_at) / RFU ORM1 (11744905_x_at) / Fold change /veh ORM1 (11744905_x_at) / RFU CCDC152 (11743942_at) / Fold change /veh CCDC152 (11743942_at) / RFU ECM1 (11717891_a_at) / Fold change /veh ECM1 (11717891_a_at) / RFU IL23R (11748794_a_at) / Fold change /veh IL23R (11748794_a_at) / RFU TNFAIP8L3 (11732012_x_at) / Fold change /veh TNFAIP8L3 (11732012_x_at) / RFU MBOAT4 (11741988_at) / Fold change /veh MBOAT4 (11741988_at) / RFU 11764193_at / Fold change /veh 11764193_at / RFU TMEM53 (11763286_at) / Fold change /veh TMEM53 (11763286_at) / RFU MAGEB2 (11727129_at) / Fold change /veh MAGEB2 (11727129_at) / RFU TMEM200A (11744735_a_at) / Fold change /veh TMEM200A (11744735_a_at) / RFU CCDC152 (11751479_a_at) / Fold change /veh CCDC152 (11751479_a_at) / RFU FAM211A (11726209_a_at) / Fold change /veh FAM211A (11726209_a_at) / RFU RGS16 (11746705_a_at) / Fold change /veh RGS16 (11746705_a_at) / RFU VCAN (11755009_s_at) / Fold change /veh VCAN (11755009_s_at) / RFU RHOB (11743442_s_at) / Fold change /veh RHOB (11743442_s_at) / RFU RGS16 (11720943_a_at) / Fold change /veh RGS16 (11720943_a_at) / RFU RGS16 (11720944_at) / Fold change /veh RGS16 (11720944_at) / RFU, VPS4B / Fold change vs veh, VPS4B / RFU, CREB1 / Fold change vs veh, CREB1 / RFU, DNAJC13 / Fold change vs veh, DNAJC13 / RFU, GNAQ / Fold change vs veh, GNAQ / RFU, CDK5R1 / Fold change vs veh, CDK5R1 / RFU, ZRANB3 / Fold change vs veh, ZRANB3 / RFU, CUL4A / Fold change vs veh, CUL4A / RFU, CCNY / Fold change vs veh, CCNY / RFU, UFL1 / Fold change vs veh, UFL1 / RFU, COG3 / Fold change vs veh, COG3 / RFU, DIAPH2 / Fold change vs veh, DIAPH2 / RFU, SKA2 / Fold change vs veh, SKA2 / RFU, AFF3 / Fold change vs veh, AFF3 / RFU, LMF1 / Fold change vs veh, LMF1 / RFU, IPO11 / Fold change vs veh, IPO11 / RFU, DFFB / Fold change vs veh, DFFB / RFU, FOXP1 / Fold change vs veh, FOXP1 / RFU, CARD8 / Fold change vs veh, CARD8 / RFU, STRN3 / Fold change vs veh, STRN3 / RFU, ADK / Fold change vs veh, ADK / RFU, RASSF2 / Fold change vs veh, RASSF2 / RFU, WIPF1 / Fold change vs veh, WIPF1 / RFU, LARP1B / Fold change vs veh, LARP1B / RFU, RASA1 / Fold change vs veh, RASA1 / RFU, RB1 / Fold change vs veh, RB1 / RFU, PPFIA1 / Fold change vs veh, PPFIA1 / RFU, MAT2A / Fold change vs veh, MAT2A / RFU, CCT5 / Fold change vs veh, CCT5 / RFU, WDR92 / Fold change vs veh, WDR92 / RFU, CUX1 / Fold change vs veh, CUX1 / RFU, TTC7A / Fold change vs veh, TTC7A / RFU, TMEM135 / Fold change vs veh, TMEM135 / RFU, DEPTOR / Fold change vs veh, DEPTOR / RFU, CPM / Fold change vs veh, CPM / RFU, DNAJB6 / Fold change vs veh, DNAJB6 / RFU, CACNA2D3 / Fold change vs veh, CACNA2D3 / RFU, DTX4 / Fold change vs veh, DTX4 / RFU, TFCP2 / Fold change vs veh, TFCP2 / RFU, GMCL1 /// GMCL1P1 / Fold change vs veh, GMCL1 /// GMCL1P1 / RFU, AEBP2 / Fold change vs veh, AEBP2 / RFU, SNHG1 /// SNORD22 /// SNORD25 /// SNORD26 /// SNORD27 /// SNORD28 /// SNORD29 /// SNORD31 / Fold change vs veh, SNHG1 /// SNORD22 /// SNORD25 /// SNORD26 /// SNORD27 /// SNORD28 /// SNORD29 /// SNORD31 / Fold change (Aza/veh), C12orf56 (ProbeSet 11735607_a_at) / Fold change (ACY-1035/veh), C12orf56 (ProbeSet 11735607_a_at) / Fold change (Aza/veh), FGFR1OP (ProbeSet 11751329_s_at) / Fold change (ACY-1035/veh), FGFR1OP (ProbeSet 11751329_s_at) / Fold change (Aza/veh), VPS36 (ProbeSet 11739960_a_at) / Fold change (ACY-1035/veh), VPS36 (ProbeSet 11739960_a_at) / RFU SYPL1 (11715823_x_at) / Fold change /veh SYPL1 (11715823_x_at) / RFU IGFBP7 (11715501_s_at) / Fold change /veh IGFBP7 (11715501_s_at) / RFU REEP3 (11722064_at) / Fold change /veh REEP3 (11722064_at) / RFU IGLL1 (11728026_x_at) / Fold change /veh IGLL1 (11728026_x_at): dose or concentration left out as unconfirmed", "conditions": "ProbeSet 11757268_x_at; LIST B"}
{"smiles": "Nc1ccc(-c2cccs2)cc1NC(=O)c1ccc2c(c1)cc(C1CC1)n2CCN1CCOCC1", "note": "[ACY-1035]", "values": [{"measurement": "Fold change vs veh, HNRNPA1", "result": 0.97}]}
